Source: patent US5668146A, “Symmetrical bis-heteroarylmethoxyphenyliminoxyalkyl carboxylates as inhibitors of leukotriene biosynthesis” (Abbott Laboratories, priority 1996, dated 1997)

Experiments:
leukotriene biosynthesis [1] = details: oral; Prasit, et al., 1991; cited from earlier work
[2] = tested on: 5-Lipoxygenase From Stimulated LTB4 Formation in Human Polymorphonuclear Leukocytes; assay: Inhibition of calcium ionophore-induced LTB4 formation in human polymorphonuclear leukocytes (PMNL); assay type: cell-based; details: calcium ionophore 8.3 μM, 10 min at 37° C., 15 min preincubation
Protocol: Inhibition of leukotriene biosynthesis was evaluated in an assay involving calcium ionophore-induced LTB4 expressed in human polymorphonuclear leukocytes (PMNL). Human PMNL isolated from heparinized (20 USP units/mL) venous blood (25 mL) obtained from healthy volunteers was layered over an equal volume of Ficoll-Hypaque Mono-Poly Resolving Medium (ICN Flow, Costa Mesa, Calif.) and centrifugated at 400×g for 40 minutes at 20° C. The PMNL was collected, erythrocytes lysed and washed 2× and suspended at 1.0×10^7 cells/mL in Earle's balanced salt solution with 17 mM Earle's HEPES. Aliquots of the cell suspension were preincubated with test compounds dissolved in DMSO (final concentration <2%) for 15 minutes and stimulated with calcium ionophore (final concentration 8.3 μM) for 10 minutes at 37° C. Incubations were stopped with the addition of two volumes of ice cold methanol followed by centrifuging the cell suspensions at 4° C. for 10 minutes at 450×g. The amount of LTB4 in the methanol extract was analyzed by enzyme-linked immunoassay or by HPLC analysis.

leukotriene biosynthesis [3] = assay: Ionophore A-23187-Induced Rat Pleural Inflammation Model (in vivo leukotriene inhibition); details: male rats, dosed one hour prior to intrapleural A23187 (20 μg), lavage after 30 min, eicosanoids by enzyme immunoassay
Protocol: Inhibition of leukotriene biosynthesis in vivo was evaluated using the Ionophore A-23187-Induced Rat Plueral Inflammation Model. Pleural inflammation was induced in male rats following the method of Rao, et al. (Rao, T. S., Currie, J. L., Shaffer, A. F., Isakson, P. C., Evaluation of 5-lipoxygenase Inhibitors, Zileuton, A78773 and ICI D-2 138 in an Ionophore (A-23187) Induced Pleural Inflammation Model in the Rat, Life Sciences, 53, 147 (1993)). Rats were dosed with experimental compounds in 0.2% methocel one hour prior to the intrapleural injection of the calcium ionophore, A23187. The rats where lightly anaesthetized with Pentrane (Abbott Laboratories) and injected intrapleurally with 0.5 ml of 2% ethanol in injectable saline (Abbott Laboratories) containing 20 μg of A23187 (Cal BioChem-Novabiochem). Thirty minutes later the animals were euthanised and the pleural cavities lavaged with ice cold saline (Abbott Laboratories). The lavage fluid was then added to ice cold methanol (final methanol concentration 30%) to lyse cells and precipitate protein. Eicosanoids were determined by enzyme immunoassay by standard methods.

| Structure (SMILES) | IC50 [2] | orally active leukotriene biosynthesis inhibitor (in words) (leukotriene biosynthesis [1]) | ED50 (leukotriene biosynthesis [3]) |
| --- | --- | --- | --- |
| O=C(O)CSC(CCCc1ccc(Cl)cc1)c1ccc(OCc2ccc3ccccc3n2)cc1 (centres unmarked) [((4-(4-chlorophenyl)-1-(4-(2-quinolylmethoxy)phenyl)butyl)thio)acetic acid] |  | orally active leukotriene biosynthesis inhibitor |  |
| O=C(O)C=NOC(c1ccc(OCc2ccc3ccccc3n2)cc1)c1ccc(OCc2ccc3ccccc3n2)cc1 [Example 1, bis(4-(2-quinolylmethoxy)phenyl)methyliminoxyacetic acid] | 68 nM |  |  |
| CC(=NOC(c1ccc(OCc2ccc3ccccc3n2)cc1)c1ccc(OCc2ccc3ccccc3n2)cc1)C(=O)O [Example 2, 2-(bis(4-(2-quinolylmethoxy)phenyl)methyliminoxy)propionic acid] | 160 nM |  | 2 mg/kg |

The next lines start with results.

| IC50 [2] | Structure (SMILES) | orally active leukotriene biosynthesis inhibitor (in words) (leukotriene biosynthesis [1]) | ED50 (leukotriene biosynthesis [3]) |
| --- | --- | --- | --- |
| 30 nM | CC(/C=C/C(=O)O)=NOC(c1ccc(OCc2ccc3ccccc3n2)cc1)c1ccc(OCc2ccc3ccccc3n2)cc1 [Example 8] |  |  |
| 40 nM | CC(=NOC(c1ccc(OCc2ccc3cc(F)ccc3n2)cc1)c1ccc(OCc2ccc3cc(F)ccc3n2)cc1)C(=O)O [Example 6, 2-(bis(4-(6-fluoro-2-quinolylmethoxy)phenyl)methyliminoxy)propionic acid] |  |  |
| 50 nM | CC(CCC(=O)O)=NOC(c1ccc(OCc2ccc3ccccc3n2)cc1)c1ccc(OCc2ccc3ccccc3n2)cc1 [Example 7, 4-(bis(4-(2-quinolylmethoxy)phenyl)methyliminoxy)pentanoic acid] |  | 1 mg/kg |
